Results taken from patent US20020136789A1, “Use of tagetes minuta oil and its components as antiviral agents” (COUNCIL OF SCIENTIFIC & INDUSTRIAL RESEARCH, priority 2001, published 2002).
“And” between values parts separate entries of the source, which are not always exact repeats. Equal entries are not always repeated.

What was measured:
8 bacterial strains = details: cited from earlier work
HIV replication = details: cited from earlier work
mosquito = details: in vivo; cited from earlier work
HSV-1 = details: concentrations 12-47 μg/ml; cited from earlier work
Cox B1 = details: concentrations 12-47 μg/ml; cited from earlier work
PVX [1] = details: susceptible viruses such as PVX; cited from earlier work
PVX [2] = details: cited from earlier work
PNRSV = details: in vivo; cited from earlier work
TMV = details: except during very early replicative steps following inoculation; cited from earlier work
BGMV = details: in vivo; cited from earlier work
SSV = details: in vivo; cited from earlier work
CaMV = details: in vivo; cited from earlier work
[3] = system: Carnation vein mottle virus (CaVMV); assay: Local lesion assay of CaVMV on Chenopodium amaranticolor leaves (test half leaf vs virus+buffer control); format: in vivo; details: for Percentage Inhibition of CaVMV, IInd Treatment: compounds after extraction, summary of three experiments; for Percentage Inhibition of CaVMV, IIIrd Treatment: compounds after storing at 0° C.; for No. of Lesions on Test / % inhibition / Average No. of lesions Test / Test (number of lesions): CaVMV; for No. of Lesions on Test: 24 hrs room temperature, ten leaves; for No. of Lesions on Test / % inhibition / Average No. of lesions Test: Chenopodium amaranticolor; for Test (number of lesions): compound stored at 0° C. for two months; for antiviral activity against CaVMV (in words): components tested individually in pure form
Description: (§1) Each concentration of whole Tagetes minuta oil and its pure isolated components were applied on 10 leaves so that the average could be taken.
(§2) The whole oil of Tagetes minuta and its pure components i.e. ocimene and dihydrotagetone were tested individually with virus cultures of CaVMV and CaRSV and applied on the leaves of Chenopodium amaranticolor. In all the experiments each concentration of three testing mixtures were applied on ten leaves of Chenopodium amaranticolor palnt. The isolated compounds were stored at 0° C. for two months and the experiments were repeated.
(§3) The Cultures of Carnation ring spot and Carnation vein motto viruses were maintained both in natural host and on Phaseolus vulgaris and Chenopodium quinoa which are maintenance and propagation host of these viruses respectively. For virus culture, leaves of fifteen days old individual virus inoculated host plants with CaVMV and CaRSV were ground in phosphate buffer pH 7.5 and the viruses were extracted separately in crude sap.
(§4) Activity of the above volatile oils were tested against Carnation ring spot and Carnation vein mottle virus in different dilutions. Most of the tests were performed by using 0.5% and 2.5% concentration of essential oils as the phytotoxic effect appeared on Chenopodium amaranticolor leaves, at higher concentrations. The 0.5% and 2.5% concentration of essential oils were mixed with crude sap containing each virus and incubated at room temperature for 24 hrs. After incubation, sap containing virus were inoculated individually on bioassay host Chenopodium amaranticolor after adding Cellite (as abrasive) to monitor the inhibitory effect. Following results were obtained in different concentrations.

[4] = system: Carnation ring spot virus (CaRSV); assay: Local lesion assay of CaRSV on Chenopodium amaranticolor leaves (test half leaf vs virus+buffer control); format: in vivo; details: for Percentage Inhibition of CaRSV, IInd Treatment: compounds after extraction, summary of three experiments; for Percentage Inhibition of CaRSV, IIIrd Treatment: compounds after storing at 0° C.; for No. of Lesions on Test / % inhibition / Average No. of lesions Test / Test (number of lesions): CaRSV; for No. of Lesions on Test: 24 hrs room temperature, ten leaves; for No. of Lesions on Test / % inhibition / Average No. of lesions Test: Chenopodium amaranticolor; for Test (number of lesions): compound stored at 0° C. for two months; for antiviral activity against CaRSV (in words): components tested individually in pure form
Description: as §1, §2, §3, §4

[5] = 0.5% concentration mixed with crude sap
[6] = 2.5% concentration mixed with crude sap

## CC12CCC(CC1)C(C)(C)O2 [1,8 cineole]
8 bacterial strains
  activity against 8 bacterial strains: exhibited activity

## CC12CCC(CC1=O)C2(C)C (stereo not shown) [Camphor, camphor]
8 bacterial strains
  activity against 8 bacterial strains: almost inactive

## CC1=CC[C@@H]([C@@H](C)[C@H]2CC[C@@]3(C)C4=C(C=C(CCC(=O)O)C(=C(C)C)C=C4)CC[C@]23C)OC1=O [Compound 3]
HIV replication; HIV replication
  therapeutic index: greater than 71.4
HIV replication
  EC50, inhibition of HIV replication: 1400 µg/mL

## C=C/C(C)=C/C(=O)C=C(C)C [5-E Ocimenone]
mosquito
  mosquito larvaecideal activity: mosquito larvaecideal activity

## O=c1c(O)c(-c2ccccc2)oc2cc(O)cc(O)c12 [galangin]
HSV-1
  antiviral activity against HSV-1: significant antiviral activity
Cox B1
  antiviral activity against Cox B1: significant antiviral activity

## NC(=O)c1ncn([C@@H]2O[C@H](CO)[C@@H](O)[C@H]2O)n1 [ribavirin, Ribavirin]
PVX [1]
  concentration needed to inhibit local lesion development and to prevent infection: Approximately 1000 ppm
PVX [2]; 10 ppm, differentiating calli
  developing shoots into which virus spread was prevented: 90%
PVX [2]; 100 ppm in the medium
  inhibition of PVX in callus culture: not inhibited
PNRSV
  susceptibility of PNRSV: resistant
TMV
  susceptibility of TMV: much less susceptible than other viruses
BGMV
  effectiveness against BGMV: relatively or completely ineffective
SSV
  effectiveness against SSV: relatively or completely ineffective
CaMV
  effectiveness against CaMV: relatively or completely ineffective

## C=CC(C)CC(=O)CC(C)C (stereo not shown) [Dihydrotagetone, dihydrotagetone]
[3]; 0.5%
  Percentage Inhibition of CaVMV, IInd Treatment: 72.2%
  Percentage Inhibition of CaVMV, IIIrd Treatment: 100%
[3]; 2.5%
  Percentage Inhibition of CaVMV, IInd Treatment: 83.6%
  Percentage Inhibition of CaVMV, IIIrd Treatment: 100%
[3]; [5]
  No. of Lesions on Test: 38 and 40 and 45
[3]; 0.5% concentration
  % inhibition: 73.04% and 73.3% and 70.3%
  Average No. of lesions Test: 4.22 and 4.44 and 5.00
  Test (number of lesions): 0
[3]; [6]
  No. of Lesions on Test: 31 and 25 and 38
[3]; 2.5% concentration
  % inhibition: 83.0% and 87.0% and 81.0%
  Average No. of lesions Test: 3.44 and 2.77 and 4.20
  Test (number of lesions): 0
[3]
  antiviral activity against CaVMV (in words): enhanced antiviral activity
[4]; 0.5%
  Percentage Inhibition of CaRSV, IInd Treatment: 71.6%
  Percentage Inhibition of CaRSV, IIIrd Treatment: 100%
[4]; 2.5%
  Percentage Inhibition of CaRSV, IInd Treatment: 81.06%
  Percentage Inhibition of CaRSV, IIIrd Treatment: 100%
[4]; [5]
  No. of Lesions on Test: 32 and 41 and 42
[4]; 0.5% concentration
  % inhibition: 72.1% and 70.9% and 72.0%
  Average No. of lesions Test: 4.22 and 4.44 and 5.00
  Test (number of lesions): 0
[4]; 2.5% concentration
  % inhibition: 81.8% and 82.0% and 79.4%
  Average No. of lesions Test: 2.8 and 2.5 and 4.0
  Test (number of lesions): 0
[4]
  antiviral activity against CaRSV (in words): enhanced antiviral activity

## CC(C)[C@]12CC(=O)[C@H](C)[C@H]1C2 [thujone]
8 bacterial strains
  activity against 8 bacterial strains: exhibited activity

## C=C/C(C)=C\CC=C(C)C [Ocimene, Z-β-ocimene]
[3]; 0.5%
  Percentage Inhibition of CaVMV, IInd Treatment: 70.2%
  Percentage Inhibition of CaVMV, IIIrd Treatment: 100%
[3]; 2.5%
  Percentage Inhibition of CaVMV, IInd Treatment: 84.3%
  Percentage Inhibition of CaVMV, IIIrd Treatment: 100%
[3]; [5]
  No. of Lesions on Test: 66 and 70 and 65
[3]; 0.5% concentration
  % inhibition: 71.05% and 63.50% and 72.1%
  Average No. of lesions Test: 6.6 and 7.0 and 6.5
  Test (number of lesions): 0
[3]; [6]
  No. of Lesions on Test: 43 and 40 and 38
[3]; 2.5% concentration
  % inhibition: 83.58% and 84.00% and 85.66%
  Average No. of lesions Test: 4.3 and 4.0 and 3.8
  Test (number of lesions): 0
[3]
  antiviral activity against CaVMV (in words): enhanced antiviral activity
[4]; 0.5%
  Percentage Inhibition of CaRSV, IInd Treatment: 67.9%
  Percentage Inhibition of CaRSV, IIIrd Treatment: 100%
[4]; 2.5%
  Percentage Inhibition of CaRSV, IInd Treatment: 80.9%
  Percentage Inhibition of CaRSV, IIIrd Treatment: 100%
[4]; [5]
  No. of Lesions on Test: 60 and 65 and 58
[4]; 0.5% concentration
  % inhibition: 69.6% and 66.6% and 67.7%
  Average No. of lesions Test: 6.0 and 6.5 and 5.8
  Test (number of lesions): 0
[4]; [6]
  No. of Lesions on Test: 40 and 25 and 35
[4]; 2.5% concentration
  % inhibition: 80.4% and 81.4% and 81.0%
  Average No. of lesions Test: 4.0 and 2.5 and 3.5
  Test (number of lesions): 0
[4]
  antiviral activity against CaRSV (in words): enhanced antiviral activity
